In EPA's CvTdb concentration-time database:

Tests used:
Rat [1] = experiment: concentration in brain after dosing; conditions: 2 min; dosed: 2-Methyltetrahydrofuran; 40 mg/kg; iv; Female; Harlan Sprague Dawley
Rat [2] = experiment: concentration in plasma after dosing; conditions: 4 h; dosed: 2-Methyltetrahydrofuran; 40 mg/kg; iv; Female; Harlan Sprague Dawley
Rat [3] = experiment: concentration in brain after dosing; conditions: 2 min; dosed: 2-Methyltetrahydrofuran; 40 mg/kg; iv; Female; Harlan Sprague Dawley; remark: listed apart in the source
Rat [4] = experiment: concentration in plasma after dosing; conditions: 2 h; dosed: 2-Methyltetrahydrofuran; 40 mg/kg; iv; Female; Harlan Sprague Dawley
Rat [5] = experiment: concentration in brain after dosing; conditions: 4 h; dosed: 2-Methyltetrahydrofuran; 40 mg/kg; iv; Male; Harlan Sprague Dawley
Rat [6] = experiment: concentration in brain after dosing; conditions: 0.2 h; dosed: 2-Methyltetrahydrofuran; 40 mg/kg; iv; Male; Harlan Sprague Dawley
Rat [7] = experiment: concentration in plasma after dosing; conditions: 2 min; dosed: 2-Methyltetrahydrofuran; 40 mg/kg; iv; Female; Harlan Sprague Dawley
Rat [8] = experiment: concentration in brain after dosing; conditions: 1.5 h; dosed: 2-Methyltetrahydrofuran; 40 mg/kg; iv; Male; Harlan Sprague Dawley
Rat [9] = experiment: concentration in liver after dosing; conditions: 12 h; dosed: Fluorotelomer alcohol 8+2; 80 mg/kg; oral; Female; Harlan Sprague Dawley
Rat [10] = experiment: concentration in kidney after dosing; conditions: 3 h; dosed: Fluorotelomer alcohol 8+2; 80 mg/kg; oral; Female; Harlan Sprague Dawley
Rat [11] = experiment: concentration in liver after dosing; conditions: 1 h; dosed: Fluorotelomer alcohol 8+2; 24 mg/kg; oral; Male; Harlan Sprague Dawley
Rat [12] = experiment: concentration in liver after dosing; conditions: 3 h; dosed: Fluorotelomer alcohol 8+2; 80 mg/kg; oral; Female; Harlan Sprague Dawley
Rat [13] = experiment: concentration in liver after dosing; conditions: 6 h; dosed: Fluorotelomer alcohol 8+2; 80 mg/kg; oral; Female; Harlan Sprague Dawley
Rat [14] = experiment: concentration in plasma after dosing; conditions: 192 h; dosed: 678-39-7; 12 mg/kg; iv; Male; F344
Rat [15] = experiment: concentration in plasma after dosing; conditions: 0.25 h; dosed: Perfluorohexanoic Acid; 40 mg/kg; iv; Male; F344
Rat [16] = experiment: concentration in brain after dosing; conditions: 1 h; dosed: Perfluorohexanoic Acid; 80 mg/kg; oral; Female; Harlan Sprague Dawley
Rat [17] = experiment: concentration in brain after dosing; conditions: 0.5 h; dosed: Perfluorohexanoic Acid; 80 mg/kg; oral; Male; Harlan Sprague Dawley
Rat [18] = experiment: concentration in brain after dosing; conditions: 0.5 h; dosed: Perfluorohexanoic Acid; 80 mg/kg; oral; Female; Harlan Sprague Dawley
Rat [19] = experiment: concentration in plasma after dosing; conditions: dosed: Perfluorohexanoic Acid, 40 mg/kg, oral, Male, Harlan Sprague Dawley
Rat [20] = experiment: concentration in kidney after dosing; conditions: 0.5 h; dosed: Perfluorohexanoic Acid; 80 mg/kg; oral; Female; Harlan Sprague Dawley
Rat [21] = experiment: concentration in plasma after dosing; conditions: 0.5 h; dosed: Perfluorohexanoic Acid; 80 mg/kg; oral; Male; Harlan Sprague Dawley
Rat [22] = experiment: concentration in plasma after dosing; conditions: 1 h; dosed: Perfluorohexanoic Acid; 80 mg/kg; oral; Male; Harlan Sprague Dawley
Rat [23] = experiment: concentration in brain after dosing; conditions: 864 h; dosed: Perfluorooctane Sulfonate; 20 mg/kg; oral; Female; F344
Rat [24] = experiment: concentration in brain after dosing; conditions: 6 h; dosed: Perfluorooctane Sulfonate; 20 mg/kg; oral; Female; F344
Rat [25] = experiment: concentration in kidney after dosing; conditions: 24 h; dosed: Perfluorooctane Sulfonate; 2 mg/kg; oral; Female; Harlan Sprague Dawley
Rat [26] = experiment: concentration in liver after dosing; conditions: 6 h; dosed: Perfluorooctane Sulfonate; 2 mg/kg; oral; Female; Harlan Sprague Dawley
Rat [27] = experiment: concentration in liver after dosing; conditions: 6 h; dosed: Perfluorooctane Sulfonate; 20 mg/kg; oral; Female; F344
Rat [28] = experiment: concentration in kidney after dosing; conditions: 24 h; dosed: Perfluorooctane Sulfonate; 20 mg/kg; oral; Male; Harlan Sprague Dawley
Rat [29] = experiment: concentration in kidney after dosing; conditions: 864 h; dosed: Perfluorooctane Sulfonate; 20 mg/kg; oral; Female; F344
Rat [30] = experiment: concentration in plasma after dosing; conditions: dosed: Perfluorooctane Sulfonate, 2 mg/kg, iv, Female, Harlan Sprague-Dawley
Rat [31] = experiment: concentration in kidney after dosing; conditions: 864 h; dosed: Perfluorooctane Sulfonate; 20 mg/kg; oral; Male; Harlan Sprague Dawley
Rat [32] = experiment: concentration in plasma after dosing; conditions: dosed: Perfluorooctane Sulfonate, 2 mg/kg, iv, Female, F344
Rat [33] = experiment: concentration in liver after dosing; conditions: 1848 h; dosed: Perfluorooctane Sulfonate; 20 mg/kg; oral; Male; Harlan Sprague Dawley
Rat [34] = experiment: concentration in plasma after dosing; conditions: dosed: Perfluorooctane Sulfonate, 2 mg/kg, iv, Female, Harlan Sprague-Dawley; remark: listed apart in the source
Rat [35] = experiment: concentration in plasma after dosing; conditions: 5 min; dosed: Gemfibrozil; 50 mg/kg; oral; Male; Sprague-Dawley
Rat [36] = experiment: concentration in plasma after dosing; conditions: 6 h; dosed: Gemfibrozil; 4.29 mg/kg; oral; Male; Sprague-Dawley
Rat [37] = experiment: concentration in plasma after dosing; conditions: 24 h; dosed: Gemfibrozil; 50 mg/kg; oral; Male; Sprague-Dawley
Rat [38] = experiment: concentration in plasma after dosing; conditions: 2 h; dosed: Gemfibrozil; 50 mg/kg; oral; Male; Sprague-Dawley
Rat [39] = experiment: concentration in plasma after dosing; conditions: 6 h; dosed: Gemfibrozil; 100 mg/kg; oral; Male; Sprague-Dawley
Rat [40] = experiment: concentration in plasma after dosing; conditions: 5 min; dosed: Gemfibrozil; 100 mg/kg; oral; Male; Sprague-Dawley

CC1CCCO1 (stereo unspecified) [2-Methyltetrahydrofuran]
Conditions | concentration in brain [µg/mL] | concentration in plasma [µg/mL]
Rat [1] | 38 | –
Rat [2] | – | 0.245
Rat [3] | 50.4 | –
Rat [4] | – | 9.86
Rat [5] | 1.66 | –
Rat [6] | 26.5 | –
Rat [7] | – | 52.5
Rat [8] | 7.3 | –

O=C(O)CCC(F)(F)C(F)(F)C(F)(F)C(F)(F)C(F)(F)C(F)(F)C(F)(F)F [Fluorotelomer acid 7+3]
Conditions | concentration in kidney [ng/g] | concentration in liver [ng/g] | concentration in plasma [µg/mL]
Rat [9] | – | 7200 | –
Rat [10] | 5820 | – | –
Rat [11] | – | 588 | –
Rat [12] | – | 11400 | –
Rat [13] | – | 9210 | –
Rat [14] | – | – | 0.0136

O=C(O)C(F)(F)C(F)(F)C(F)(F)C(F)(F)C(F)(F)F [Perfluorohexanoic Acid]
Conditions | concentration in brain [ng/g] | concentration in kidney [ng/g] | concentration in plasma [µg/mL]
Rat [15] | – | – | 6.48
Rat [16] | 1270 | – | –
Rat [17] | 2500 | – | –
Rat [18] | 943 | – | –
Rat [20] | – | 46000 | –
Rat [21] | – | – | 105
Rat [22] | – | – | 146

Rat [19]
Conditions | concentration in plasma [µg/mL]
1 h | 51.4
24 h | 2.4

O=S(=O)([O-])C(F)(F)C(F)(F)C(F)(F)C(F)(F)C(F)(F)C(F)(F)C(F)(F)C(F)(F)F [Perfluorooctane Sulfonate]
Conditions | concentration in brain [ng/g] | concentration in kidney [ng/g] | concentration in liver [ng/g]
Rat [23] | 2700 | – | –
Rat [24] | 3430 | – | –
Rat [25] | – | 4940 | –
Rat [26] | – | – | 24500
Rat [27] | – | – | 169000
Rat [28] | – | 82400 | –
Rat [29] | – | 35600 | –
Rat [31] | – | 17800 | –
Rat [33] | – | – | 59600

Conditions | concentration in plasma [µg/mL]
Rat [30], 5 min | 5.92
Rat [30], 24 h | 5.37
Rat [32], 6 h | 4.91
Rat [32], 528 h | 2.9
Rat [32], 3216 h | 0.277
Rat [34], 1 h | 4.32
Rat [34], 192 h | 3.17
Rat [34], 2376 h | 0.542

Cc1ccc(C)c(OCCCC(C)(C)C(=O)O)c1 [Gemfibrozil]
Conditions | concentration in plasma [µg/mL]
Rat [35] | 2.35
Rat [36] | 0.64
Rat [37] | 0.754
Rat [38] | 7.21
Rat [39] | 13.8
Rat [40] | 1.93
